The target in assay [1] is CB1 receptor (Homo sapiens, UniProt P21554). The assay is described as follows: Cannabinoid receptor assay, CB1 (CP-55940 as control). The class given is binding. As to the method: (§1) The affinities of the total extracts and the isolated compounds towards cannabinoid and opioid receptors were assessed according to the published method.
(§2) The affinities of the total extracts and the isolated compounds towards cannabinoid and opioid receptors were assessed using CP-55940 and Naloxone as controls for cannabinoid and opioid receptors assays, respectively.

Assay [2] addresses T1, recombinant human monoamine oxidase-A (Homo sapiens, UniProt P21397).
T1 construct: purchased BD Biosciences (Bedford, MA, USA)
T1 sequence (P21397 1-527): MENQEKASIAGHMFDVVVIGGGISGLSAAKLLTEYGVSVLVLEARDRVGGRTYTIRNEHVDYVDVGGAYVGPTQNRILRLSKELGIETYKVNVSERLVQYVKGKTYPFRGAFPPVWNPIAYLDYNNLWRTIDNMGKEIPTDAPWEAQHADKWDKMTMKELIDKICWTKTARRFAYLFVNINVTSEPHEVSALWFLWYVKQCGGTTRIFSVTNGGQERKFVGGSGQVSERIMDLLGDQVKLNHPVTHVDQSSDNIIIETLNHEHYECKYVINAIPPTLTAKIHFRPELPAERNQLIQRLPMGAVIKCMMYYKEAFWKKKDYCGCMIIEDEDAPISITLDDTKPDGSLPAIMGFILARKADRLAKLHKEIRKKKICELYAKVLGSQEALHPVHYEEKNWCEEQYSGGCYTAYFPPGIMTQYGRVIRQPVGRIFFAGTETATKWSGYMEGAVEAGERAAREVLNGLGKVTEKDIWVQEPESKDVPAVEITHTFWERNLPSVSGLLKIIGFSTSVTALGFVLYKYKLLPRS
Kind of assay: MAO-A inhibition, kynuramine deamination assay. It is filed as biochemical. The note with it: kynuramine 80 μM, pH 7.4, 37°C; mean ±SD of triplicate. Here is the method:
(§3) The inhibitory effects of the chemical components of M. pomifera (L.) on MAO-A and MAO-B were determined via the kynuramine deamination assay, where it was adapted for 96-well plates as described earlier. A fixed concentration of the substrate and varying concentrations of the inhibitor were used to determine the IC50 value at the point where 50% inhibition of the catalytic activity of the enzyme occurred. For MAO-A, the substrate (kynuramine) concentration of 80 μM was chosen, since the KM value of substrate binding reported previously was approximately 40 μM [23]. […] Similarly, for MAO-B, a substrate (kynuramine) concentration of 50 μM was chosen. The assay was performed with the addition of the inhibitor. Inhibition was calculated as percent of the product formation compared to the corresponding control (enzyme-substrate reaction) without the inhibitors. The enzyme reactions were carried out in 0.1 M potassium phosphate buffer at pH 7.4. Reaction mixtures contained 5 μg/mL of MAO-A (18.75 μL in buffer) and 10 μg/mL of MAO-B (18.75 μL in buffer). The compounds were dissolved in DMSO and diluted in buffer. The total reaction mixture volume was 75 μL, yielding a final DMSO concentration of 1.0% in the reaction mixture. The reaction mixtures were preincubated for 10 min at 37°C followed by the addition of MAO-A/MAO-B to initiate the reactions. The reaction mixtures were incubated for 20 min at 37°C and stopped by the addition of 28 μL of 2 N NaOH. The formation of 4-hydroxyquinoline was determined fluorometrically by Spectra Max M5 fluorescence plate reader (Molecular Devices, Sunnyvale, CA, USA) with an excitation and emission wavelength of 320 nm and 380 nm, respectively, using the Soft Max Pro program. Appropriate controls were set up to check the interference with the fluorescence measurements. […] The determination of IC50 values for inhibition of MAO-A and MAO-B by the M. pomifera (L.) compounds was performed using a fixed concentration of the substrate and varying the concentration of the inhibitor.
(§4) The compounds isolated from M. pomifera (L.) fruits were tested for their inhibitory effect against recombinant human MAO isoforms (MAO-A and MAO-B) in vitro. The enzymatic activity of MAO-A and MAO -B was determined via a fluorescence based method.

For assay [3], the target named is T2, recombinant human monoamine oxidase-B (Homo sapiens, UniProt P27338).
T2 construct: purchased BD Biosciences (Bedford, MA, USA)
T2 sequence (P27338 1-520): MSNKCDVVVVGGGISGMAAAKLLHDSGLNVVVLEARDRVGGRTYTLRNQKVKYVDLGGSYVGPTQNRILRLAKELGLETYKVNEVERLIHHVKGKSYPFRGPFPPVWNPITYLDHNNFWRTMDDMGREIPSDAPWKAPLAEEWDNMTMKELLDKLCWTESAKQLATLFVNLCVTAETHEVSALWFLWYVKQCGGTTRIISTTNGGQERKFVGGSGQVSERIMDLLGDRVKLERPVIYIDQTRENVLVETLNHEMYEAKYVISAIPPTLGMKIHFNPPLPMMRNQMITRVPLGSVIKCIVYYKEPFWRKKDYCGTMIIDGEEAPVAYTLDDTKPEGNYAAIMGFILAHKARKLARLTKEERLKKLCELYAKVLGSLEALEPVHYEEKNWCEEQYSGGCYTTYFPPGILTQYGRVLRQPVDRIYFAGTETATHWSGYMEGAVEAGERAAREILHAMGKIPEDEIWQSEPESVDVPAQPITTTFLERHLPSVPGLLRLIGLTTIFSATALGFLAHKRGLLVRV
The assay is described as follows: MAO-B inhibition, kynuramine deamination assay. It is filed as biochemical. The settings on record: for Selectivity of MAO inhibition: MAO-B versus MAO-A; for IC50: kynuramine 50 μM, pH 7.4, 37°C, mean ±SD of triplicate; for SI index MAO-A/B: ratio of MAO-A IC50 to MAO-B IC50. As to the method: as §3, §4

Assay [4] has as its target κ opioid receptor (Homo sapiens, UniProt P41145). Kind of assay: Opioid receptor assay, κ (Naloxone as control). The class given is binding. The settings on record: negative value read as possibly allosteric. As to the method: as §1, §2
The target of assay [5] is μ opioid receptor (Homo sapiens, UniProt P35372). The assay is described as follows: Opioid receptor assay, μ (Naloxone as control). The class given is binding. The note with it: negative value read as possibly allosteric. Here is the method:
as §1, §2

Assay [6] concerns the target CB2 receptor (Homo sapiens, UniProt P34972). Kind of assay: Cannabinoid receptor assay, CB2 (CP-55940 as control). The class given is binding. As to the method: as §1, §2

CB1 receptor, sequence (P21554 whole entry): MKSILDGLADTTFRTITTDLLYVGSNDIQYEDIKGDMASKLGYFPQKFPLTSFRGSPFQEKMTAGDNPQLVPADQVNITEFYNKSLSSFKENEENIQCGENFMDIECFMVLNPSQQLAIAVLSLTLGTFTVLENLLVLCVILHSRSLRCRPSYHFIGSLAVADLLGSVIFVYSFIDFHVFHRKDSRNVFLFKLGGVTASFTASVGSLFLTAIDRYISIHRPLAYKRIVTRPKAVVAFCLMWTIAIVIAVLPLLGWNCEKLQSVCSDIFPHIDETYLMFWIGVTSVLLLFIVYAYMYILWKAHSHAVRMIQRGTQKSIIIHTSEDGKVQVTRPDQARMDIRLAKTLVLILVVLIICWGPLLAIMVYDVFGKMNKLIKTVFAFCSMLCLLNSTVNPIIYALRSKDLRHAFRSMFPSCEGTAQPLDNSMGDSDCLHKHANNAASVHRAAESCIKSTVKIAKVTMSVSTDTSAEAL
CB2 receptor, sequence (P34972 whole entry): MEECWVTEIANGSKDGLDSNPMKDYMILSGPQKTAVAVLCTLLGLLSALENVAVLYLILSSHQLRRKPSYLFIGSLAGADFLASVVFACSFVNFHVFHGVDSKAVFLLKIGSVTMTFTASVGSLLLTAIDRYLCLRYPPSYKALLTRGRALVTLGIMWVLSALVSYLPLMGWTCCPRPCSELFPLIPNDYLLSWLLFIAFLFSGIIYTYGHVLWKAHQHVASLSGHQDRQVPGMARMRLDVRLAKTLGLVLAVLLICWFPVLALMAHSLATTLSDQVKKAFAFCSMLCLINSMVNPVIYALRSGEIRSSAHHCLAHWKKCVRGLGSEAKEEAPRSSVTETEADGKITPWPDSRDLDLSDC
μ opioid receptor, sequence (P35372 whole entry): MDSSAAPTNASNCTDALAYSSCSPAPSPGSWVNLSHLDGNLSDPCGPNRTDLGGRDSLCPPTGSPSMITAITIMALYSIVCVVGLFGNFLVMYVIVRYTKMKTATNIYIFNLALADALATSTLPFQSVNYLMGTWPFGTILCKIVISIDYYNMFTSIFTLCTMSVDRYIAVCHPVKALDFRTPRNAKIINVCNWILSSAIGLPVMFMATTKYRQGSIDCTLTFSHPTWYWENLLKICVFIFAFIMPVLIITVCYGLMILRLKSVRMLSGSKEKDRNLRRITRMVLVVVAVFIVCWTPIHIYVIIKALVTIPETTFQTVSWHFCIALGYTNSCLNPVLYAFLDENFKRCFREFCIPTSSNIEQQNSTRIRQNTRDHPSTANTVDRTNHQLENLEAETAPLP
κ opioid receptor, sequence (P41145 whole entry): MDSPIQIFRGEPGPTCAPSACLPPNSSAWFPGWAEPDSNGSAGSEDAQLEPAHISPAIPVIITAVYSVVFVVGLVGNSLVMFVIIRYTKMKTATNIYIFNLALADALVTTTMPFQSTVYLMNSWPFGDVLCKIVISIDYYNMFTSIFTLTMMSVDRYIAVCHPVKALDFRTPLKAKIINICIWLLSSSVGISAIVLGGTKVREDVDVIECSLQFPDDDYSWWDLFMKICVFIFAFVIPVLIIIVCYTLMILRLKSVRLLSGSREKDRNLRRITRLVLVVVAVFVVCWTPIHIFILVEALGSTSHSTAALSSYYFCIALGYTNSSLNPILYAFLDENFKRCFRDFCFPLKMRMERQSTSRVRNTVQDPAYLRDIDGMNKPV

For `CC(C)=CCc1c2c(c(O)c3c(=O)c(-c4ccc(O)c(O)c4)coc13)C=CC(C)(C)O2` [Auriculasin (VI), auriculasin], in assay [1], the IC50 was 8.92 µM and the inhibition constant (Ki) was determined as 4.46 µM. In assay [1] (10 μM), this compound came in with a CB1 % displacement of 86.7%. Besides, the IC50 in assay [2] worked out at 46 ± 4.48 µM. In assay [3], the “Selectivity of MAO inhibition” value is on record as “selective inhibition of MAO-B”, the 50% inhibitory concentration (IC50) was determined as 1.91 ± 0.32 µM and the “SI index MAO-A/B” value was determined as 24.073.

Turning to `COC(Cc1c2c(c(O)c3c(=O)c(-c4ccc(O)c(O)c4)coc13)C=CC(C)(C)O2)C(C)(C)O` (stereo not drawn) [Kazosajin I, 3-(3,4-Dihydroxyphenyl)-5-hydroxy-10-(3-hydroxy-2-methoxy-3-methylbutyl)-8,8-dimethylpyrano[3,2-g]chromen-4(8H)-one], the “CB1 % displacement” value in assay [1] (concentration not given) is 60.5%. In addition, the “κ opioid receptor % displacement” value in assay [4] is on record as −88.4%. The “μ opioid receptor % displacement” value in assay [5] is on record as −27.2%. In addition, the IC50 in assay [2] worked out at 74.3 ± 3.44 µM. Besides, in assay [3], the IC50 was found to be 11.6 ± 1.39 µM and the “SI index MAO-A/B” value is on record as 6.413.

On to `C=C(C)C(O)C(=O)c1c2c(c3occ(-c4ccc(O)c(O)c4)c(=O)c3c1O)C=CC(C)(C)O2` (stereo not drawn) [Kazosajin II, 3-(3,4-Dihydroxyphenyl)-5-hydroxy-6-(2-hydroxy-3-methylbut-3-enoyl)-8,8-dimethylpyrano[2,3-f]chromen-4(8H)-one], for which the “CB1 % displacement” value in assay [1] (concentration not given) was 47.9%. Moreover, the “CB2 % displacement” value in assay [6] (concentration not given) is listed as 42.3%. The IC50 in assay [2] came out at 72 ± 3.72 µM. Moreover, in assay [3], the “Selectivity of MAO inhibition” value is on record as “selective inhibition of MAO-B”, the concentration for half-maximal inhibition (IC50) is 4.28 ± 0.67 µM and the “SI index MAO-A/B” value was 16.829.

In the case of `CC1(C)C=Cc2c(c3c(c4c(=O)c(-c5ccc(O)cc5)coc24)OC(C)(C)C(O)C3)O1` (stereo not drawn) [Kazosajin III, 11-Hydroxy-7-(4-hydroxyphenyl)-2,2,10,10-tetramethyl-11,12-dihydro-2H-dipyrano[2,3-f: 2′,3′-h]chromen-8(10H)-one], the IC50 in assay [2] was greater than 100 µM. Also, in assay [3], the “Selectivity of MAO inhibition” value was “selective inhibition of MAO-B” and the IC50 stood at 7.16 ± 1.15 µM.

Take `COC(c1c2c(c(O)c3c(=O)c(-c4ccc(O)c(O)c4)coc13)C=CC(C)(C)O2)C1OC1(C)C` (stereo not drawn) [Kazosajin IV, 3-(3,4-Dihydroxyphenyl)-10-((3,3-dimethyloxiran-2-yl)(methoxy)methyl)-5-hydroxy-8,8-dimethylpyrano[3,2-g]chromen-4(8H)-one]: the half-inhibitory concentration (IC50) in assay [2] came to 71.2 ± 2.61 µM. For the same compound, in assay [3], the 50% inhibitory concentration (IC50) was found to be 17.7 ± 1.06 µM and the “SI index MAO-A/B” value was 4.032.

For `CC(C)=CCc1c2c(c3occ(-c4ccc(O)cc4)c(=O)c3c1O)C=CC(C)(C)O2` [Osajin (VIII), osajin], the IC50 in assay [1] was 3.86 µM; in assay [6], 7.65 µM; in assay [2] it was greater than 100 µM; in assay [3], greater than 100 µM. Also, the Ki in assay [1] turned out to be 1.93 µM; in assay [6], 3.82 µM. Moreover, the CB1 % displacement in assay [1] (10 μM) and in assay [1] (concentration not given) was 93.9% each time. Also, the CB2 % displacement in assay [6] (10 μM) and in assay [6] (concentration not given) was 52.7% in each case.

Regarding `CC(C)=CCc1c2c(c3occ(-c4ccc(O)c(O)c4)c(=O)c3c1O)C=CC(C)(C)O2` [Pomiferin (V), pomiferin], the IC50 was 2.11 µM in assay [1], 1.32 µM in assay [6], greater than 100 µM in assay [2] and greater than 100 µM in assay [3]. For the same compound, affinity in assay [1] was put at a Ki of 1.05 µM. The CB1 % displacement in assay [1] (10 μM) and in assay [1] (concentration not given) was 107.2% throughout. Besides, the CB2 % displacement in assay [6] (10 μM) and in assay [6] (concentration not given) was 66.0% in each case.

Turning to `CC(C)=CCc1c2c(c(O)c3c(=O)c(-c4ccc(O)cc4)coc13)C=CC(C)(C)O2` [Warangalone (VII), warangalone], the IC50 in assay [1] was 1.67 µM; in assay [6] it was 4.44 µM; in assay [2] it was greater than 100 µM; in assay [3] it was 5.69 ± 0.38 µM. The CB1 % displacement in assay [1] (10 μM) and in assay [1] (concentration not given) was 111.3% throughout. Also, the Ki in assay [6] was 2.22 µM. In addition, the CB2 % displacement in assay [6] (10 μM) is recorded as 77.6%; in assay [6] (concentration not given), 77.57%. Further, in assay [3], the “Selectivity of MAO inhibition” value is listed as “selective inhibition of MAO-B”.

Values taken from article PMC5820588, “Isolation and Biological Evaluation of Prenylated Flavonoids from Maclura pomifera” (Evidence-based Complementary and Alternative Medicine : eCAM, 2018).
